Measurements reported in publication PMC6748410, “A phase 2 study of an oral mTORC1/mTORC2 kinase inhibitor (CC-223) for non-pancreatic neuroendocrine tumors with or without carcinoid symptoms” (PLoS ONE, 2019).

Key:
[1] = Treatment-related adverse events and tolerability (CTCAE v4.0) in patients with NET; assay type: in vivo
Method: CC-223 capsules were taken orally once daily in continuous 28-day cycles. An initial cohort started CC-223 at a dose of 45 mg; this was the maximum tolerated dose (MTD) established in phase 1 but, after observing a high rate of dose adjustments due to toxicity among patients with NET, a second cohort started CC-223 at 30 mg. To mitigate toxicity, dosage could be adjusted with either short interruptions, dose level reductions, or every-other-day administration. Treatment was permanently discontinued for disease progression, unmanageable toxicity, patient withdrawal of consent, or other reasons specified by the protocol as requiring study withdrawal.
Baseline assessments were completed within 28 days prior to first dose of CC-223. Drug tolerability was continuously evaluated until 28 days after the last dose, using clinical event and laboratory test monitoring comprising a conventional hematologic and coagulation (if taking anti-coagulants) panel; serum electrolytes; fasting blood glucose (this also included daily self-monitoring with finger stick samples for the first month and for longer if necessary), HbA1c, insulin, and c-peptide; liver enzymes; serum creatinine; and protein. Others included serum uric acid, amylase and lipase, lipoproteins, thyroid function tests, creatine kinase, and immunoglobulins including T-cell subsets (CD4+ and CD8+). We also performed serial triplicate electrocardiograms (ECGs), periodic left ventricular ejection fraction estimations (echo or multiple gated acquisition [MUGA]), regular physical exams and vital sign measurements (heart rate, blood pressure, respiratory rate, and temperature). Adverse events were coded with Medical Dictionary for Regulatory Activities (MedDRA) version 19.0. Severity of adverse events was classified using the National Cancer Institute Common Terminology Criteria for Adverse Events (CTCAE) version 4.0. A safety review committee provided study oversight.

[2] = design: method as in doi:10.1200/jco.2013.31.15_suppl.2606; conditions: non-small cell lung cancer and hepatocellular carcinoma cohorts dosed at 45 mg; cited from earlier work
[3] = 30 mg starting dose (n = 23), any grade
[4] = 45 mg starting dose (n = 24), any grade

SMILES: CO[C@H]1CC[C@H](N2C(=O)CNc3ncc(-c4ccc(C(C)(C)O)nc4)nc32)CC1 [CC-223]
- Patients requiring 1 dose reduction ([1]; 30 mg group (n = 23)): 11 patients
- Patients requiring 2 dose reductions ([1]; 30 mg group (n = 23)): 7 patients
- Patients requiring more than 2 dose reductions ([1]; 30 mg group (n = 23)): 0 patients
- Treatment-related adverse event: AST increased [1, 3]: 3 (13.0) n (%)
- Treatment-related adverse event: Abdominal pain [1, 3]: 2 (8.7) n (%)
- Treatment-related adverse event: Asthenia [1, 3]: 7 (30.4) n (%)
- Treatment-related adverse event: Blood creatinine increased [1, 3]: 4 (17.4) n (%)
- Treatment-related adverse event: Decreased appetite [1, 3]: 4 (17.4) n (%)
- Treatment-related adverse event: Dehydration [1, 3]: 4 (17.4) n (%)
- Treatment-related adverse event: Diarrhea [1, 3]: 17 (73.9) n (%)
- Treatment-related adverse event: Dry mouth [1, 3]: 2 (8.7) n (%)
- Treatment-related adverse event: Dysgeusia [1, 3]: 3 (13.0) n (%)
- Treatment-related adverse event: Fatigue [1, 3]: 17 (73.9) n (%)
- Treatment-related adverse event: Hyperglycemia [1, 3]: 5 (21.7) n (%)
- Treatment-related adverse event: Maculopapular rash [1, 3]: 3 (13.0) n (%)
- Treatment-related adverse event: Malaise [1, 3]: 3 (13.0) n (%)
- Treatment-related adverse event: Mucosal inflammation [1, 3]: 3 (13.0) n (%)
- Treatment-related adverse event: Nausea [1, 3]: 6 (26.1) n (%)
- Treatment-related adverse event: Pruritus [1, 3]: 7 (30.4) n (%)
- Treatment-related adverse event: Rash [1, 3]: 6 (26.1) n (%)
- Treatment-related adverse event: Rash macular [1, 3]: 2 (8.7) n (%)
- Treatment-related adverse event: Stomatitis [1, 3]: 11 (47.8) n (%)
- Treatment-related adverse event: Vomiting [1, 3]: 2 (8.7) n (%)
- Patients requiring 1 dose reduction ([1]; 45 mg group (n = 24)): 3 patients
- Patients requiring more than 2 dose reductions ([1]; 45 mg group (n = 24)): 2 patients
- Tolerability in the NET cohort ([1]; 45 mg once daily): not well-tolerated
- Treatment-related adverse event: AST increased [1, 4]: 2 (8.3) n (%)
- Treatment-related adverse event: Abdominal pain [1, 4]: 3 (12.5) n (%)
- Treatment-related adverse event: Asthenia [1, 4]: 4 (16.7) n (%)
- Treatment-related adverse event: Blood creatinine increased [1, 4]: 3 (12.5) n (%)
- Treatment-related adverse event: Decreased appetite [1, 4]: 8 (33.3) n (%)
- Treatment-related adverse event: Dehydration [1, 4]: 4 (16.7) n (%)
- Treatment-related adverse event: Diarrhea [1, 4]: 19 (79.2) n (%)
- Treatment-related adverse event: Dry mouth [1, 4]: 5 (20.8) n (%)
- Treatment-related adverse event: Dysgeusia [1, 4]: 5 (20.8) n (%)
- Treatment-related adverse event: Fatigue [1, 4]: 14 (58.3) n (%)
- Treatment-related adverse event: Hyperglycemia [1, 4]: 8 (33.3) n (%)
- Treatment-related adverse event: Maculopapular rash [1, 4]: 9 (37.5) n (%)
- Treatment-related adverse event: Malaise [1, 4]: 4 (16.7) n (%)
- Treatment-related adverse event: Mucosal inflammation [1, 4]: 3 (12.5) n (%)
- Treatment-related adverse event: Nausea [1, 4]: 12 (50.0) n (%)
- Treatment-related adverse event: Pruritus [1, 4]: 12 (50.0) n (%)
- Treatment-related adverse event: Rash [1, 4]: 12 (50.0) n (%)
- Treatment-related adverse event: Rash macular [1, 4]: 4 (16.7) n (%)
- Treatment-related adverse event: Stomatitis [1, 4]: 14 (58.3) n (%)
- Treatment-related adverse event: Vomiting [1, 4]: 5 (20.8) n (%)
- Patients with one or more serious adverse event related to CC-223 ([1]; 8 of 47 patients): 17%
- Patients who remained on the dose initially assigned ([1]; 12 of 47 patients): 26%
- Treatment-related adverse event: AST increased ([1]; Any dose (N = 47), Grade 3): 2 (4.3) n (%)
- Treatment-related adverse event: Abdominal pain ([1]; Any dose (N = 47), Grade 3): 1 (2.1) n (%)
- Treatment-related adverse event: Asthenia ([1]; Any dose (N = 47), Grade 3): 3 (6.4) n (%)
- Treatment-related adverse event: Blood creatinine increased ([1]; Any dose (N = 47), Grade 3): 1 (2.1) n (%)
- Treatment-related adverse event: Decreased appetite ([1]; Any dose (N = 47), Grade 3): 1 (2.1) n (%)
- Treatment-related adverse event: Dehydration ([1]; Any dose (N = 47), Grade 3): 1 (2.1) n (%)
- Treatment-related adverse event: Diarrhea ([1]; Any dose (N = 47), Grade 3): 18 (38.3) n (%)
- Treatment-related adverse event: Dry mouth ([1]; Any dose (N = 47), Grade 3): 0 n (%)
- Treatment-related adverse event: Dysgeusia ([1]; Any dose (N = 47), Grade 3): 0 n (%)
- Treatment-related adverse event: Fatigue ([1]; Any dose (N = 47), Grade 3): 10 (21.3) n (%)
- Treatment-related adverse event: Hyperglycemia ([1]; Any dose (N = 47), Grade 3): 0 n (%)
- Treatment-related adverse event: Maculopapular rash ([1]; Any dose (N = 47), Grade 3): 3 (6.4) n (%)
- Treatment-related adverse event: Malaise ([1]; Any dose (N = 47), Grade 3): 0 n (%)
- Treatment-related adverse event: Mucosal inflammation ([1]; Any dose (N = 47), Grade 3): 0 n (%)
- Treatment-related adverse event: Nausea ([1]; Any dose (N = 47), Grade 3): 1 (2.1) n (%)
- Treatment-related adverse event: Pruritus ([1]; Any dose (N = 47), Grade 3): 2 (4.3) n (%)
- Treatment-related adverse event: Rash ([1]; Any dose (N = 47), Grade 3): 1 (2.1) n (%)
- Treatment-related adverse event: Rash macular ([1]; Any dose (N = 47), Grade 3): 1 (2.1) n (%)
- Treatment-related adverse event: Stomatitis ([1]; Any dose (N = 47), Grade 3): 5 (10.6) n (%)
- Treatment-related adverse event: Vomiting ([1]; Any dose (N = 47), Grade 3): 2 (4.3) n (%)
- Treatment-related adverse event: AST increased ([1]; Any dose (N = 47), any grade): 5 (10.6) n (%)
- Treatment-related adverse event: Abdominal pain ([1]; Any dose (N = 47), any grade): 5 (10.6) n (%)
- Treatment-related adverse event: Asthenia ([1]; Any dose (N = 47), any grade): 11 (23.4) n (%)
- Treatment-related adverse event: Blood creatinine increased ([1]; Any dose (N = 47), any grade): 7 (14.9) n (%)
- Treatment-related adverse event: Decreased appetite ([1]; Any dose (N = 47), any grade): 12 (25.5) n (%)
- Treatment-related adverse event: Dehydration ([1]; Any dose (N = 47), any grade): 8 (17.0) n (%)
- Treatment-related adverse event: Diarrhea ([1]; Any dose (N = 47), any grade): 36 (76.6) n (%)
- Treatment-related adverse event: Dry mouth ([1]; Any dose (N = 47), any grade): 7 (14.9) n (%)
- Treatment-related adverse event: Dysgeusia ([1]; Any dose (N = 47), any grade): 8 (17.0) n (%)
- Treatment-related adverse event: Fatigue ([1]; Any dose (N = 47), any grade): 31 (66.0) n (%)
- Treatment-related adverse event: Hyperglycemia ([1]; Any dose (N = 47), any grade): 13 (27.7) n (%)
- Treatment-related adverse event: Maculopapular rash ([1]; Any dose (N = 47), any grade): 12 (25.5) n (%)
- Treatment-related adverse event: Malaise ([1]; Any dose (N = 47), any grade): 7 (14.9) n (%)
- Treatment-related adverse event: Mucosal inflammation ([1]; Any dose (N = 47), any grade): 6 (12.8) n (%)
- Treatment-related adverse event: Nausea ([1]; Any dose (N = 47), any grade): 18 (38.3) n (%)
- Treatment-related adverse event: Pruritus ([1]; Any dose (N = 47), any grade): 19 (40.4) n (%)
- Treatment-related adverse event: Rash ([1]; Any dose (N = 47), any grade): 18 (38.3) n (%)
- Treatment-related adverse event: Rash macular ([1]; Any dose (N = 47), any grade): 6 (12.8) n (%)
- Treatment-related adverse event: Stomatitis ([1]; Any dose (N = 47), any grade): 25 (53.2) n (%)
- Treatment-related adverse event: Vomiting ([1]; Any dose (N = 47), any grade): 7 (14.9) n (%)
- Most common TRAEs: asthenia ([1]; any grade, n = 47): 23%
- Most common TRAEs: decreased appetite ([1]; any grade, n = 47): 26%
- Most common TRAEs: diarrhea ([1]; any grade, n = 47): 77%
- Most common TRAEs: fatigue ([1]; any grade, n = 47): 66%
- Most common TRAEs: hyperglycemia ([1]; any grade, n = 47): 28%
- Most common TRAEs: maculopapular rash ([1]; any grade, n = 47): 26%
- Most common TRAEs: nausea ([1]; any grade, n = 47): 38%
- Most common TRAEs: pruritus ([1]; any grade, n = 47): 40%
- Most common TRAEs: rash ([1]; any grade, n = 47): 38%
- Most common TRAEs: stomatitis ([1]; any grade, n = 47): 53%
- Patients who reported at least one treatment-related adverse event (TRAE) ([1]; by investigator determination, n = 47): 98%
- Patients with doses reduced for extended periods to levels as low as 15 mg ([1]; human, in vivo): 45%
- Deaths on study due to treatment-related toxicity ([1]; n = 47): No patient died
- Grade 3 or higher toxicity: diarrhea ([1]; n = 47): 38%
- Grade 3 or higher toxicity: fatigue ([1]; n = 47): 21%
- Grade 3 or higher toxicity: stomatitis ([1]; n = 47): 11%
- Grade 4 or 5 toxicities among the most common adverse events ([1]; n = 47): no grade 4 or 5 toxicities reported
- Patients who discontinued CC-223 because of toxicity ([1]; n = 47): 13%
- Patients who experienced grade 3 or 4 treatment-related events ([1]; n = 47): 79%
- Patients who required dose adjustments due to toxicity ([1]; n = 47): 85%
- Toxicity causing discontinuation: decreased appetite ([1]; n = 47): 6%
- Toxicity causing discontinuation: diarrhea ([1]; n = 47): 9%
- Toxicity causing discontinuation: nausea ([1]; n = 47): 4%
- Toxicity requiring dose adjustments: diarrhea ([1]; n = 47): 40%
- Toxicity requiring dose adjustments: fatigue ([1]; n = 47): 17%
- Toxicity requiring dose adjustments: increased blood creatinine ([1]; n = 47): 13%
- Toxicity requiring dose adjustments: stomatitis ([1]; n = 47): 17%
- Patients requiring 2 dose reductions ([1]; overall, n = 47): 19 patients
- Patients requiring more than 2 dose reductions ([1]; overall, n = 47): 4 patients
- Mean time to first dose reduction ([1]; overall, range 8–589 days): 46 days
- Patients with dose reductions [2]: > 50%
